Data published in ChEMBL document CHEMBL1201862, “PubChem BioAssay data set” (2004).
Structures can show the parent of a compound that is named as a salt. Activity calls are given as the source filed them.

How the values were obtained:
[1] = biological target: Luciferin 4-monooxygenase (Photinus pyralis, UniProt P08659); assay: Counter Screen for Luciferase-based Assay Positives. [Related pubchem assays: 620, 618, 411 ]
[2] = tested on: HT-1080; assay: HT1080 cell viability loss – fluorescence readout (AID 620); type: functional, cell-based; settings: Homo sapiens
[3] = biological target: T1, Histone-lysine N-methyltransferase NSD2 (Homo sapiens, UniProt O96028); type: biochemical
T1 sequence (O96028 whole entry): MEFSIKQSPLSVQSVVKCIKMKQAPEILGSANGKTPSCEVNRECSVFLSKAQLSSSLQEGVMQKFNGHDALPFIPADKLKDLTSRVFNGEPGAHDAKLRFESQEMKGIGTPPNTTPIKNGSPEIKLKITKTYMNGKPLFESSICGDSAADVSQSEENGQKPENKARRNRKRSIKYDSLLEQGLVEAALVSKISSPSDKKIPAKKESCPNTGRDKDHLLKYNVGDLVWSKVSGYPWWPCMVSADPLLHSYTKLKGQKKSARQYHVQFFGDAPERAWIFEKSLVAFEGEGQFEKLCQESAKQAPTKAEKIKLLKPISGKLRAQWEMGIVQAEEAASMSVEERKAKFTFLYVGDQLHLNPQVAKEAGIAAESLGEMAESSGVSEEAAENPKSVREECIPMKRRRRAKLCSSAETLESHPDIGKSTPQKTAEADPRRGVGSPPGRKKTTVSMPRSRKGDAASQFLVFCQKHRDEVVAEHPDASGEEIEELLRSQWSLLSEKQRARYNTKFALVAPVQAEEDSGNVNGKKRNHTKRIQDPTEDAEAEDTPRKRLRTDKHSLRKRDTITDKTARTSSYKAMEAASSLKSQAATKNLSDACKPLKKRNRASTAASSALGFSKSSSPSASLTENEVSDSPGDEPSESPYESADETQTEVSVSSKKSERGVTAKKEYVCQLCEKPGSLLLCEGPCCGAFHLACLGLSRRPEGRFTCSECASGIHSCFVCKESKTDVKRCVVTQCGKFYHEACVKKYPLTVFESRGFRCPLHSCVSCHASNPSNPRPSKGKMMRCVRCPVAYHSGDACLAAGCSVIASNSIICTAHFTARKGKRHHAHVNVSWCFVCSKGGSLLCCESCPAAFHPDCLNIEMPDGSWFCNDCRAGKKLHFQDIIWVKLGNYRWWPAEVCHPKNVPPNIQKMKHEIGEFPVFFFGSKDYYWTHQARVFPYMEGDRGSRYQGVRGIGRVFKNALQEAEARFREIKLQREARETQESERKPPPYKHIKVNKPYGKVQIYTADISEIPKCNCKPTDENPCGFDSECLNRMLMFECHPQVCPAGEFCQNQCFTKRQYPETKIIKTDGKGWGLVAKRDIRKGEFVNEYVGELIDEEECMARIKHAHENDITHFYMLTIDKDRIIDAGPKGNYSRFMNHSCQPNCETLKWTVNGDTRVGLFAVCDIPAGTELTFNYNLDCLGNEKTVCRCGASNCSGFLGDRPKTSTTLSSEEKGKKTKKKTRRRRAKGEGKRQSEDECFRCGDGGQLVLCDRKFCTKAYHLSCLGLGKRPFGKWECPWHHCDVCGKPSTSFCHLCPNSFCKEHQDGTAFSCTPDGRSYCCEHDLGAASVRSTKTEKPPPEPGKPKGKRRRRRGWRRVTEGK

[4] = biological target: Nonstructural protein 1 (Influenza A virus, UniProt Q194T2); type: functional, Influenza A virus (A/California/07/2009(H1N1))
[5] = biological target: Ras and Rab interactor 1/Tyrosine-protein kinase ABL1 (Homo sapiens, UniProt P00519+Q13671); type: functional;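 also: biochemical TR-FRET dose-response test measuring inhibition of binding between Rin1 and Abl proteins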
[6] = biological target: Estrogen receptor beta (Homo sapiens, UniProt Q92731); assay: blockers of SRC-3 recruitment to ERβ – biochemical, ELISA, streptavidin-HRP readout, orthogonal assay, confirmation (AID 1060)
[7] = biological target: T2, Protein skinhead-1 (Caenorhabditis elegans, UniProt P34707); type: functional
T2 sequence (P34707 whole entry): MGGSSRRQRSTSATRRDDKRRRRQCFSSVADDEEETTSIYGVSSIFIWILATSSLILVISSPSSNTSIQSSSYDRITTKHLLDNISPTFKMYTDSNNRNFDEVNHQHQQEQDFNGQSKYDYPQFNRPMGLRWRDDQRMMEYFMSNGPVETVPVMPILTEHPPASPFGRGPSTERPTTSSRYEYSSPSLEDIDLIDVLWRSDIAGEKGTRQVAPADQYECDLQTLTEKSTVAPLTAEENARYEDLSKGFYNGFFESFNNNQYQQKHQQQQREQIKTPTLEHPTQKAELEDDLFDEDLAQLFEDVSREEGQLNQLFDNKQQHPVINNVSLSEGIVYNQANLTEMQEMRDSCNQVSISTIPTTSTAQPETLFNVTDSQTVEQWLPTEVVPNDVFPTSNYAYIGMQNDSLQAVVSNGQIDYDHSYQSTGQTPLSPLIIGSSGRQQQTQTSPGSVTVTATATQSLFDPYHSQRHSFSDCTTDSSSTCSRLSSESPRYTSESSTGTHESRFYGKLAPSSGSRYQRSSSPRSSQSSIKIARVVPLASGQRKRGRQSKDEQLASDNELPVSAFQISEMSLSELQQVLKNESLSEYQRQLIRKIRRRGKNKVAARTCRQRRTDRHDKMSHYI

[8] = biological target: T3, Heat shock factor protein 1 (Mus musculus, UniProt P38532); assay: enhancement of HSF1-driven luciferase signal – cell-based, NIH3T3, luminescence, dose retest, confirmation (AID 435004); type: functional;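 also: stress induced by proteasome inhibitor MG132 added 30 min after compound; luciferase reporter driven by HSF1 response element in NIH3T3 cells; actives raise luminescence as potentiators of the MG132 stress response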
T3 sequence (P38532 whole entry): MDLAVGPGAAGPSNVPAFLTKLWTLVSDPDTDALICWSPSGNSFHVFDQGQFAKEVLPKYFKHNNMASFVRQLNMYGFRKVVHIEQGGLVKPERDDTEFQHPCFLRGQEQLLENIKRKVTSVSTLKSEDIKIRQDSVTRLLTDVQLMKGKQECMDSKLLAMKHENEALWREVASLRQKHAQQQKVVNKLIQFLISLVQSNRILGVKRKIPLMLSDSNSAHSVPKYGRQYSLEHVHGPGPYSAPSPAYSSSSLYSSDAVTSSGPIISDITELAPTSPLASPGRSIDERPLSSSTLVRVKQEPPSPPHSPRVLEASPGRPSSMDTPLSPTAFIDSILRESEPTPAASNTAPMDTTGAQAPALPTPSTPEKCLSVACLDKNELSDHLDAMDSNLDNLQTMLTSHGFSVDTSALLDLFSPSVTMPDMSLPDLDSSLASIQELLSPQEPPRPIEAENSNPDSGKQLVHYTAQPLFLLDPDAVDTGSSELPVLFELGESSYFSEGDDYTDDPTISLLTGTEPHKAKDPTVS

[9] = THP-1 cell cytotoxicity, dose response, cytotoxicity control for non-replicating M. tuberculosis project (AID 489025); type: functional
[10] = NIH3T3 cell viability loss – ATP luminescence, mouse fibroblasts, counter-screen, dose response (AID 2010); type: functional, cell-based;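 also: cells exposed to compound for about 90 hours before reading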
[11] = cells
[12] = Trypanosoma cruzi growth suppression in host cells – NIH3T3 host cells, beta-gal luminescence, confirmation (AID 2044); type: functional, cell-based;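 also: intracellular parasites grown in NIH/3T3 mouse fibroblasts as host cells; luminescent beta-galactosidase reporter signal from transgenic T. cruzi replicating inside host cells; inhibitors lower the luminescence signal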
[13] = viability of HCT116 lacking mutant beta-catenin – cell-based, human colon tumor, dose response (AID 1045); type: functional;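 also: HCT116 colon tumor cells with beta catenin knocked out; cells exposed to compound for 60 hours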
[14] = alpha-synuclein stem-loop luciferase translation blockers – H4 neuroglioma cells, luminescence, confirmation (AID 1988); type: functional, cell-based
[15] = Luminescence Cell-Based Dose Response HTS to Identify Inhibitors of 5'UTR Stem-Loop Driven Prion Protein mRNA Translation in H4 Neuroglioblastoma Cells. [Related pubchem assays: 1827 (Project Summary), 1813 (Primary HTS)]; type: functional
[16] = luciferase reporter signal suppression in cells – H4 neuroglioma cells, luminescence, dose response (AID 1990); type: functional, cell-based
[17] = non-specific 3'UTR reporter inhibition in Clone20-Shn3RL – cell-based, Renilla luciferase, cherry-picked, counter-screen for Shn3 inhibitor project, dose response (AID 624133); type: functional
[18] = loss of viability in HepG2 cells – cell-based, CellTiter-Glo, cherry-picked, cytotoxicity control for Shn3 inhibitor project, dose response (AID 624134); type: functional
[19] = reduction of Shn3 3'UTR-driven luciferase in osteoblasts – cell-based, Clone20 osteoblasts, firefly luciferase, cherry-picked, dose response (AID 624132); type: functional;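 also: firefly luciferase luminescence from reporter carrying the Shn3 3'UTR in osteoblasts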
[20] = viability of PTEN-deleted HCT116 cells – cell-based, HCT116 PTEN knockout, dose response (AID 1047); type: functional;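 also: HCT116 colon tumor cells with PTEN knocked out; cells exposed to compound for 60 hours before readout; potency for loss of cell viability measured by luminescence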
[21] = biological target: T4, Ubiquitin-conjugating enzyme E2 N (Homo sapiens, UniProt P61088); type: functional;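 also: Dose-response confirmation in a TR-FRET assay detecting UBC13-driven polyubiquitin chain formation, inhibition measured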
T4 sequence (P61088 whole entry): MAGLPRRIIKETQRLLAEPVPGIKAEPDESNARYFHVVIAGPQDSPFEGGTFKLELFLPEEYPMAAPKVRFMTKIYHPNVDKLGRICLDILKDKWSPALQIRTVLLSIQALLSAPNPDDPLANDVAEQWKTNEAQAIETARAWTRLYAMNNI

[22] = biological target: FAD-linked sulfhydryl oxidase ALR (Homo sapiens, UniProt P55789); assay: ALR-catalysed DTT oxidation blockers – biochemical, H2O2 detection, luminescence, cherry-pick, dose response (AID 493248)
[23] = biological target: T5, Trace amine-associated receptor 1 (Homo sapiens, UniProt Q96RJ0); assay: Counterscreen for agonists of the human trace amine associated receptor 1 (hTAAR1): Fluorescence-based cell-based high throughput dose response assay to identify hTAAR1 agonist that also desensitize TAAR1 receptor response.; type: functional
T5 sequence (Q96RJ0 whole entry): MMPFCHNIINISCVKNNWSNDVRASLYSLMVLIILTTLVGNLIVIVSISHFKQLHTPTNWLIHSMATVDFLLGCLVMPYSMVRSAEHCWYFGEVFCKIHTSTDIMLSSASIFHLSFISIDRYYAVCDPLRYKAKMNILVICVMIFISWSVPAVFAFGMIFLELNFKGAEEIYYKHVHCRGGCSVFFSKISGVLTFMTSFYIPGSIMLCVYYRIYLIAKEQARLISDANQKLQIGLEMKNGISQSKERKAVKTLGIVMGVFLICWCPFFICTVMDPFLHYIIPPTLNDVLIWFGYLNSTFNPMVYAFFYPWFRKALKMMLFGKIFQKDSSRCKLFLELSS

[24] = biological target: T5, Trace amine-associated receptor 1; assay: Fluorescence-based cell-based high throughput dose response assay to identify agonists of the human trace amine associated receptor 1 (TAAR1).; type: functional

Luciferin 4-monooxygenase, sequence (P08659 whole entry): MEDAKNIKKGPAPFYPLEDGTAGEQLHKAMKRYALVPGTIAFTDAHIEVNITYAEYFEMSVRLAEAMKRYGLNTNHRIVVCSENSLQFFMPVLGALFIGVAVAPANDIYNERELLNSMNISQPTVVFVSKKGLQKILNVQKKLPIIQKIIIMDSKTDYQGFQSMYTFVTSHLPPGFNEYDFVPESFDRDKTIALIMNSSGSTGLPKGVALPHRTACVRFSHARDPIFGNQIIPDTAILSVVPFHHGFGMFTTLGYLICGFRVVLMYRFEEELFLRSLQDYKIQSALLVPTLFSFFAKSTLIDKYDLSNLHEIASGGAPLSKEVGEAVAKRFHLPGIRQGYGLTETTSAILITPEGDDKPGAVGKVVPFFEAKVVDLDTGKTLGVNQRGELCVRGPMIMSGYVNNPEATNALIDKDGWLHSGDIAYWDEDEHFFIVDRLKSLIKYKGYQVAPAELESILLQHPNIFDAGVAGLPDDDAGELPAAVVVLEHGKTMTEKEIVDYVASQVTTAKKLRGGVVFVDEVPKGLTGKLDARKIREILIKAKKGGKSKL
Estrogen receptor beta, sequence (Q92731 whole entry): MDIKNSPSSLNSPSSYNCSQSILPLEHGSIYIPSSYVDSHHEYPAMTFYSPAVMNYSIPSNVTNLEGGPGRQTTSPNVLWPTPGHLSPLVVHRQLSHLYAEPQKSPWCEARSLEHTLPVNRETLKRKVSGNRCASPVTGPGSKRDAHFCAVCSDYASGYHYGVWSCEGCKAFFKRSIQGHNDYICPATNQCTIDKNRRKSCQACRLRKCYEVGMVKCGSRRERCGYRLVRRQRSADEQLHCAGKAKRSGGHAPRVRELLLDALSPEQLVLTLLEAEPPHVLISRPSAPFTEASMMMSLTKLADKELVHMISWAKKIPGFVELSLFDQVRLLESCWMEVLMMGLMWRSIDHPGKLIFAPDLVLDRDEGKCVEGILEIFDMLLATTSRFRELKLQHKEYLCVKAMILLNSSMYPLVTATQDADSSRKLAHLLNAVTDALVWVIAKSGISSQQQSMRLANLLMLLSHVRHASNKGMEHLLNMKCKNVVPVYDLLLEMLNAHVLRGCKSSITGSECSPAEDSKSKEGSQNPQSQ
Ras and Rab interactor 1/Tyrosine-protein kinase ABL1, sequence (P00519 whole entry): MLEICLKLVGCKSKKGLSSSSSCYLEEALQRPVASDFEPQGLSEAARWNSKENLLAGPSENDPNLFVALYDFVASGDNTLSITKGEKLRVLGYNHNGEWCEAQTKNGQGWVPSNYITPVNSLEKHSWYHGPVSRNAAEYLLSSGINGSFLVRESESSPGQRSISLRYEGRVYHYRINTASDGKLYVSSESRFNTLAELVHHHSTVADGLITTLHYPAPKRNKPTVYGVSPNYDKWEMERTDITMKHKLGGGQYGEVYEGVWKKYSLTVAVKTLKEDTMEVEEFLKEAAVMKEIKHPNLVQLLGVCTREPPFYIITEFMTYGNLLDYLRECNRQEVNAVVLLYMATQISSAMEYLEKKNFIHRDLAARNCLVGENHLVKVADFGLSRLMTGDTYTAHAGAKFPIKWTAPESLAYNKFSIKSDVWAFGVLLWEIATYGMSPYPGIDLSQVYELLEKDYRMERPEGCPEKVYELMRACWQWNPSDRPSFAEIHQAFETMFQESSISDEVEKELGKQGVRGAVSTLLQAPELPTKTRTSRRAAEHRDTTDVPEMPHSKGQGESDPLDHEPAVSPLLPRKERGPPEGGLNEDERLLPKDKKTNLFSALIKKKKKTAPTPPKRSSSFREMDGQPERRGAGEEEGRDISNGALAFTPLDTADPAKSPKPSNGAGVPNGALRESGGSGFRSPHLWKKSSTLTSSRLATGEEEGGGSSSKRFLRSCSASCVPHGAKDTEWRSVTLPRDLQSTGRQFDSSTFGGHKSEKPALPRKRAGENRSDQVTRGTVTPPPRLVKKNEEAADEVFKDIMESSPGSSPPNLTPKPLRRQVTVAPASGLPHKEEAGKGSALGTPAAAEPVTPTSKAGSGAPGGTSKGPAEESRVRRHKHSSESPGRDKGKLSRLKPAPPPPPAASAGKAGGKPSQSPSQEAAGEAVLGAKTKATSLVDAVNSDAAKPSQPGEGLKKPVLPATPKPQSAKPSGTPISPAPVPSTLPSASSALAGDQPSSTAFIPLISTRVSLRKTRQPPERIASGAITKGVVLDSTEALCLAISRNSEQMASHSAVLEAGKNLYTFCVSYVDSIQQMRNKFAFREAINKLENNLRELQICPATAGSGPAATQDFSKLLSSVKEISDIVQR
Ras and Rab interactor 1/Tyrosine-protein kinase ABL1, sequence (Q13671 whole entry): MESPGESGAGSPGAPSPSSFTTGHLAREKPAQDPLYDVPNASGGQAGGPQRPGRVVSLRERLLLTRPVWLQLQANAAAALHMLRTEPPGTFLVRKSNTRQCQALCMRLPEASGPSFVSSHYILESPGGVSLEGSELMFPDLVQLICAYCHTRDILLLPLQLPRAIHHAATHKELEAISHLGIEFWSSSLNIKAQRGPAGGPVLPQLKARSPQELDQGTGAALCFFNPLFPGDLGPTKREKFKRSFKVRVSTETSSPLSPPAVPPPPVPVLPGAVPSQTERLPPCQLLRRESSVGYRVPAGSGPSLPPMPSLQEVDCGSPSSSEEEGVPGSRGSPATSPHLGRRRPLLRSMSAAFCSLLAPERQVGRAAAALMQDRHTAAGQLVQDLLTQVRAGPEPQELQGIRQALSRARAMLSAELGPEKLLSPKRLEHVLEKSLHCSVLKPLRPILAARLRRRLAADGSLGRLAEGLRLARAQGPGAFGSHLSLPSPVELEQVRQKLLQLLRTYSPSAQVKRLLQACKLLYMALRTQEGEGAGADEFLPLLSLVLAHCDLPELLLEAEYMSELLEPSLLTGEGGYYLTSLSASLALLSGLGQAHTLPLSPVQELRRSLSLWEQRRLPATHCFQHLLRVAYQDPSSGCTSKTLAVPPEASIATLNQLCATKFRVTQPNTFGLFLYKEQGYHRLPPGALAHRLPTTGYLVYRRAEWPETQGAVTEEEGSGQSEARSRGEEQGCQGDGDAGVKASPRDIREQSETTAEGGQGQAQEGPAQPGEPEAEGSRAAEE
Nonstructural protein 1, sequence (Q194T2 whole entry): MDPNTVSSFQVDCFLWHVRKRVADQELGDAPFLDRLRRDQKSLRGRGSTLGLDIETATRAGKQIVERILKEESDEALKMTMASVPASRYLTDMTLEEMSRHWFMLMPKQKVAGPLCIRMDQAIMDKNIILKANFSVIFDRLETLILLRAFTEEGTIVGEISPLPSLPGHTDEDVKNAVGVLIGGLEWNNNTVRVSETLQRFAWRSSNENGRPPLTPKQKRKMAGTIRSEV
FAD-linked sulfhydryl oxidase ALR, sequence (P55789 whole entry): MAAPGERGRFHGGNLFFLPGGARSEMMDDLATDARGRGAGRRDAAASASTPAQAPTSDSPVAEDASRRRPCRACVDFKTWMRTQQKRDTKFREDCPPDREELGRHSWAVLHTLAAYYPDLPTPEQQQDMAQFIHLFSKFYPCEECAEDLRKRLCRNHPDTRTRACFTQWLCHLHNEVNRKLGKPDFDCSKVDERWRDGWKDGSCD

## O=C(CSc1nnc(-c2csc3c2CCCC3)o1)Nc1ccccc1
[1]
  EC50: 4.34 µM (active)
[2]
  EC50: > 50 µM (not active)

## CC1NC(=O)NC1CCCCCC(=O)Nc1ccc(F)c(Cl)c1 (stereo not drawn)
[3]
  AC50: 0.343 µM (active)
[4]
  IC50: 1.16 µM (active)
[5]
  IC50: 0.015 µM (active)

## CN1CCN(c2ccc(NC(=O)COc3ccccc3Cl)cc2)CC1
[6]
  IC50: 0.814 µM (not active)

## CCCc1cc(C(=O)Nc2nccs2)cs1
[1]
  EC50: < 0.2 µM (active)
[2]
  EC50: > 50 µM (not active)
[7]
  IC50: > 100 µM (inactive)
[8]
  EC50: > 260 µM (inconclusive)

## N#Cc1c(NC(=O)CN2CCCCC2)sc2c1CCCC2
[6]
  IC50: 0.0343 µM (not active)

## COc1ccc(O)c(C(=O)CC(=O)c2ccc(F)cc2)c1
[1]
  EC50: 0.35 µM (active)
[2]
  EC50: > 50 µM (not active)
[9]
  CC50: > 40 µM (active)

## CC1CN(CCOCCSc2ccc(Cl)cc2)CC(C)O1 (stereo not drawn)
[10]
  EC50: > 60 µM (not active)
[11]
  EC50: 0.025 µM (active)
[12]
  EC50: < 0.1 µM (active)

## O=C(C1=C[C@H](C2CCCCC2)C[C@H](OCc2ccc(CO)cc2)O1)N1CCN(Cc2ccc3c(c2)OCO3)CC1
[10]
  EC50: > 60 µM (not active)
[11]
  EC50: 0.156 µM (active)
[12]
  EC50: < 0.1 µM (active)

## CCCCCCCSc1cc(OC)c(CCNC)cc1OC
[13]
  EC50: 8.71 µM (active)
[14]
  EC50: 11.9 µM (active)
[15]
  EC50: > 120 µM (not active)
[16]
  EC50: > 120 µM (not active)
[17]
  AC50: 10.5 µM (active)
[3]
  AC50: 17.5 µM (active)
[18]
  AC50: 8.47 µM (active)
[19]
  AC50: 10.6 µM (active)
[20]
  EC50: 9.72 µM (active)
[21]
  IC50: > 20 µM (inactive)

## O=C(CCCOc1ccccc1)N1CCCCC1
[14]
  EC50: 8.68 µM (active)
[15]
  EC50: 8.9 µM (active)
[1]
  EC50: < 0.2 µM (active)
[2]
  EC50: > 50 µM (not active)

## CCN(CCNC(=O)C1CCCN(Cc2nc(-c3ccc(OC)cc3)oc2C)C1)c1ccccc1 (stereo not drawn)
[10]
  EC50: 7.96 µM (active)
[11]
  EC50: 0.383 µM (active)
[12]
  EC50: < 0.1 µM (active)
[22]
  AC50: 0.01 µM (active)

## CC(=O)n1cc([C@H]2C=C(C(=O)N3CCN(Cc4ccc5c(c4)OCO5)CC3)O[C@@H](OCc3ccc(CO)cc3)C2)c2ccccc21
[10]
  EC50: > 30 µM (not active)
[11]
  EC50: 0.197 µM (active)
[12]
  EC50: < 0.1 µM (active)

## c1ccc(CN(CC2=NCCN2)c2ccccc2)cc1 [ANTAZOLINE HYDROCHLORIDE]
[23]
  IC50: > 29.9 µM (inactive)
[24]
  EC50: 4.31 µM (active)
